How the values were obtained:
[1] = in vitro; conditions: human, liver microsomes
[2] = in vitro; conditions: rat, liver microsomes
[3] = in vitro; conditions: mouse, liver microsomes

| SMILES | remaining at 10 min, 0.5 µM [1] [%] | remaining at 10 min, 0.5 µM [2] [%] | remaining at 10 min, 0.5 µM [3] [%] |
| --- | --- | --- | --- |
| CCn1nc(C)cc1C(=O)Nc1nc2cc(C(N)=O)cc(OC)c2n1C/C=C/Cn1c(NC(=O)c2cc(C)nn2CC)nc2cc(C(N)=O)cc(OCCCN3CCOCC3)c21 | 22 | 81 | > 100 |
| O=C(O)c1ccc2cc(CNC(=O)c3cnn4cccnc34)oc2c1 | 100 | 100 | 100 |
| O=C(O)c1cccc2cc(Cn3ccc4ccncc4c3=O)oc12 | 98 | 100 | 96 |
| O=C(NCc1cc2cc(Cl)c3oc(=O)[nH]c(=O)c3c2o1)c1cnn2cccnc12 | 54 | 69 | 57 |
| O=C(O)c1c(O)c(Cl)cc2cc(CNC(=O)c3cnn4cccnc34)oc12 | 98 | 88 | 93 |
| O=C(O)c1ccc2oc(CNC(=O)c3cnn4cccnc34)cc2c1 | 100 | 100 | 88 |
| O=C(O)c1c(F)ccc2cc(CNC(=O)c3cnn4cccnc34)oc12 | 98 | 91 | 92 |
| O=C(O)c1cc(Cl)cc2cc(CNC(=O)c3cnn4cccnc34)oc12 | 100 | 100 | 100 |
| O=C(NCc1cc2cc(Cl)cc(-c3nn[nH]n3)c2o1)c1cnn2cccnc12 | 96 | 89 | 80 |
| O=C(O)c1cccc2c(Cl)c(CNC(=O)c3cnn4cccnc34)oc12 | 99 | 91 | 85 |
| COC(=O)c1cccc2cc(CN3Cc4ccncc4C3=O)oc12 | 0 | 7 | 11 |
| O=C(O)c1cccc2cc(CNC(=O)c3cnn4cccnc34)oc12 | 94 | 96 | 97 |
| O=C(NCc1cc2cc(Cl)cc(C(=O)O)c2o1)c1cncc2cccnc12 | 92 | 64 | 65 |
| Cn1c(CNC(=O)c2cnn3cccnc23)nc2c(C(=O)O)cccc21 | 95 | 89 | 85 |
| C[C@H](NC(=O)c1cnn2cccnc12)c1cc2cc(Cl)cc(C(=O)O)c2o1 | 100 | 94 | 100 |
| Cc1ccc2c(=O)c3cccc(CC(=O)O)c3oc2c1C [VADIMEZAN] | 100 | 100 | 89 |
